Data reported in patent US9884868B2, “TGF-beta inhibitors” (Rigel Pharmaceuticals, Inc., priority 2015, dated 2018).

Molecular target: HIS-TGF-βR1 T204D (Homo sapiens (Human), UniProt P36897, T204D)
Test: HTRF probe displacement assay with HIS-TGF-βR1 T204D
Conditions: read-out: TGFbr1 IC50; HTRF probe displacement, 1 nM HIS-TGF-βR1 T204D, 1 hour at room temperature

HIS-TGF-βR1 T204D, sequence (P36897 34-503 T204D): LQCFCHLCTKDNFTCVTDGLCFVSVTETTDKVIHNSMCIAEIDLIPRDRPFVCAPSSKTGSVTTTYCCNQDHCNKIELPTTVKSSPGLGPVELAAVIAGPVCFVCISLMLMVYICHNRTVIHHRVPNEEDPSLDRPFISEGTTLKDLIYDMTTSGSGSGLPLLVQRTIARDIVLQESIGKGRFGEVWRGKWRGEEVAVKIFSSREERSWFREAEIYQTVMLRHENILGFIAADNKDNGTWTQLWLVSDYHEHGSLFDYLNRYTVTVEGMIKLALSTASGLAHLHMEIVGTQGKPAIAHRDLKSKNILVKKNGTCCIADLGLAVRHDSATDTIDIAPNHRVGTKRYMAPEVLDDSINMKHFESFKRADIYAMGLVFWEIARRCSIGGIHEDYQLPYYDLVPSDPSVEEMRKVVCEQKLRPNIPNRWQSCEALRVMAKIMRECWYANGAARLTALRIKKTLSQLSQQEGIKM

| SMILES | IC50 |
| --- | --- |
| N#Cc1cnc2ccc(-c3c(-c4ccc5c(c4)OCO5)ncn3CC(F)F)nn12 [247′, 6-(4-(benzo[d][1,3]dioxol-5-yl)-1-(2,2-difluoroethyl)-1H-imidazol-5-yl)imidazo[1,2-b]pyridazine-3-carbonitrile] | 14.3 nM |
| CC(C)(O)CCn1cnc(-c2ccc(F)cc2)c1-c1ccc2ncc(C#N)n2n1 [12′, 6-(4-(4-fluorophenyl)-1-(3-hydroxy-3-methylbutyl)-1H-imidazol-5-yl)imidazo[1,2-b]pyridazine-3-carbonitrile] | 2.1 nM |
| FCCn1cnc(-c2ccc(F)c(Cl)c2)c1-c1ccc2nccn2c1 [187′, 6-(4-(3-chloro-4-fluorophenyl)-1-(2-fluoroethyl)-1H-imidazol-5-yl)imidazo[1,2-a]pyridine] | 3.3 nM |
| N#Cc1cnc2ccc(-c3c(-c4ccc(F)c(Cl)c4)ncn3C3CC(F)C3)nn12 (stereo not drawn) [Example 104′, 6-(4-(3-chloro-4-fluorophenyl)-1-(3-fluorocyclobutyl)-1H-imidazol-5-yl)imidazo[1,2-b]pyridazine-3-carbonitrile] | 0.5 nM |
| Fc1ccc(-c2ncn(CC(F)F)c2-c2ccc3nccn3c2)c(F)c1 [221′, 6-(1-(2,2-difluoroethyl)-4-(2,4-difluorophenyl)-1H-imidazol-5-yl)imidazo[1,2-a]pyridine] | 6.8 nM |
| N#Cc1cnc2ccc(-c3c(-c4ccc(F)c(Cl)c4)ncn3CCO)nn12 [Example 32′, 6-(4-(3-chloro-4-fluorophenyl)-1-(2-hydroxyethyl)-1H-imidazol-5-yl)imidazo[1,2-b]pyridazine-3-carbonitrile] | 1.8 nM |
| CC(O)c1cnc2ccc(-c3c(-c4ccc(F)cc4)ncn3CC(F)F)cn12 (stereo not drawn) [Example 274′, 1-(6-(1-(2,2-difluoroethyl)-4-(4-fluorophenyl)-1H-imidazol-5-yl)imidazo[1,2-a]pyridin-3-yl)ethanol] | 137 nM |
| NC(=O)c1cnc2ccc(-c3c(-c4ccc(F)cc4)ncn3CCO)nn12 [133′, 6-(4-(4-fluorophenyl)-1-(2-hydroxyethyl)-1H-imidazol-5-yl)imidazo[1,2-b]pyridazine-3-carboxamide] | 3.1 nM |
| CCOCCn1cnc(-c2ccc(F)cc2)c1-c1ccc2ncc(C(N)=O)n2c1 [178′, 6-(1-(2-ethoxyethyl)-4-(4-fluorophenyl)-1H-imidazol-5-yl)imidazo[1,2-a]pyridine-3-carboxamide] | 1.9 nM |
| COc1ccc(-c2ncn(CC(F)F)c2-c2ccc3ncc(C#N)n3n2)cc1 [242′, 6-(1-(2,2-difluoroethyl)-4-(4-methoxyphenyl)-1H-imidazol-5-yl)imidazo[1,2-b]pyridazine-3-carbonitrile] | 5 nM |

The remaining compounds from weak to strong by IC50, led by results:

| IC50 | SMILES |
| --- | --- |
| 356 nM | N#Cc1ccc(-c2ncn(CC(F)F)c2-c2ccc3ncc(C#N)n3n2)cc1 [258′, 6-(4-(4-cyanophenyl)-1-(2,2-difluoroethyl)-1H-imidazol-5-yl)imidazo[1,2-b]pyridazine-3-carbonitrile] |
| 5.5 nM | N#Cc1cnc2ccc(-c3c(-c4ccc(F)cc4)ncn3C3CCC(F)(F)C3)nn12 (stereo not drawn) [5′, 6-(1-(3,3-difluorocyclopentyl)-4-(4-fluorophenyl)-1H-imidazol-5-yl)imidazo[1,2-b]pyridazine-3-carbonitrile] |
| 2.5 nM | CCn1cnc(-c2ccc(F)cc2)c1-c1ccc2ncc(C#N)n2n1 [10′, 6-(1-ethyl-4-(4-fluorophenyl)-1H-imidazol-5-yl)imidazo[1,2-b]pyridazine-3-carbonitrile] |
| 1.6 nM | CC1(Cn2cnc(-c3ccc(F)c(Cl)c3)c2-c2ccc3ncc(C#N)n3n2)CC1 [62′, 6-(4-(3-chloro-4-fluorophenyl)-1-((1-methylcyclopropyl)methyl)-1H-imidazol-5-yl)imidazo[1,2-b]pyridazine-3-carbonitrile] |
| 0.9 nM | CNC(=O)c1cnc2ccc(-c3c(-c4ccc(F)cc4)ncn3CC(F)F)nn12 [206′, 6-(1-(2,2-difluoroethyl)-4-(4-fluorophenyl)-1H-imidazol-5-yl)-N-methylimidazo[1,2-b]pyridazine-3-carboxamide] |
